Measured values: patent US11053204B2, “Pyrimidinyloxy benzene derivatives as herbicides” (FMC Corporation, priority 2015, dated 2021)

Key:
Type in all cases: in vivo
[1] = system: galium (catchweed bedstraw, Galium aparine); test: Test C preemergence, plant response rating
[2] = system: kochia (Kochia scoparia); test: Test C preemergence, plant response rating
[3] = system: barnyardgrass (Echinochloa crus-galli); test: Test C preemergence, plant response rating; details: Preemergence
[4] = system: windgrass (Apera spica-venti); test: Test C preemergence, plant response rating
[5] = system: Canada thistle (Cirsium arvense); test: Test C postemergence, plant response rating; details: for Canada Thistle plant response rating: scale 0 to 100 (0 no effect, 100 complete control)
Summary of the method: (§1)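 Visual injury score, 0 = no effect, 100 = complete control, assigned against untreated controls after 13 to 15 d in the greenhouse. Compounds were applied in a surfactant-containing non-phytotoxic solvent mix, preemergence to seeded loam/sand or silt loam soil, or postemergence to 1- to 4-leaf plants (2 to 18 cm).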

[6] = system: field poppy (Papaver rhoeas); test: Test C postemergence, plant response rating; details: for Field Poppy plant response rating: scale 0 to 100 (0 no effect, 100 complete control)
Summary of the method: as §1

[7] = system: field violet (Viola arvensis); test: Test C postemergence, plant response rating; details: for Field Violet plant response rating: scale 0 to 100 (0 no effect, 100 complete control)
Summary of the method: as §1

[8] = system: nightshade (eastern black nightshade, Solanum ptycanthum); test: Test C postemergence, plant response rating; details: for Nightshade plant response rating: scale 0 to 100 (0 no effect, 100 complete control)
Summary of the method: as §1

[9] = system: wild poinsettia (Euphorbia heterophylla); test: Test C postemergence, plant response rating; details: for Poinsettia, Wild plant response rating: scale 0 to 100 (0 no effect, 100 complete control)
Summary of the method: as §1

[10] = system: buckwheat, wild (wild buckwheat, Polygonum convolvulus); test: Test C postemergence, plant response rating; details: for Buckwheat, Wild plant response rating: scale 0 to 100 (0 no effect, 100 complete control)
Summary of the method: as §1

[11] = system: pigweed, palmer (palmer pigweed, Amaranthus palmeri); test: Test C postemergence, plant response rating; details: for Pigweed, Palmer plant response rating: scale 0 to 100 (0 no effect, 100 complete control)
Summary of the method: as §1

[12] = system: windgrass (Apera spica-venti); test: Test C postemergence, plant response rating
Summary of the method: as §1

[13] = system: speedwell (bird's-eye speedwell, Veronica persica); test: Test C postemergence, plant response rating; details: for Speedwell plant response rating: scale 0 to 100 (0 no effect, 100 complete control)
Summary of the method: as §1

[14] = system: johnsongrass (Sorghum halepense); test: Test C postemergence, plant response rating; details: for Johnsongrass plant response rating: scale 0 to 100 (0 no effect, 100 complete control)
Summary of the method: as §1

[15] = system: geranium, cutleaf (cutleaf geranium, Geranium dissectum); test: Test C postemergence, plant response rating; details: for Geranium, Cutleaf plant response rating: scale 0 to 100 (0 no effect, 100 complete control)
Summary of the method: as §1

[16] = system: surinam grass (Brachiaria decumbens); test: Test C postemergence, plant response rating
Summary of the method: as §1

[17] = system: pigweed, palmer (palmer pigweed, Amaranthus palmeri); test: Test C preemergence, plant response rating
[18] = system: johnsongrass (Sorghum halepense); test: Test C preemergence, plant response rating
[19] = 125 g ai/ha, scale 0 to 100 (0 no effect, 100 complete control)

CCCCC(=O)c1c(Br)cccc1Oc1ncc(Cl)cn1 [Compound 79]
Plant response rating, Galium ([1]; 16 g ai/ha, scale 0 to 100): 0 | Plant response rating, Galium ([1]; 31 g ai/ha, scale 0 to 100): 0 | Plant response rating, Galium ([1]; 62 g ai/ha, scale of 0 to 100): 70 | Plant response rating, Galium ([1]; 125 g ai/ha, scale of 0 to 100): 5 | Plant response rating, Kochia ([2]; 16 g ai/ha, scale 0 to 100): 5 | Plant response rating, Kochia ([2]; 31 g ai/ha, scale 0 to 100): 90 | Plant response rating, Kochia ([2]; 62 g ai/ha, scale 0 to 100): 90 | Plant response rating, Kochia ([2]; 125 g ai/ha, scale of 0 to 100): 100 | Plant response rating, Barnyardgrass ([3]; 62 g ai/ha, scale of 0 to 100): 75 | Plant response rating, Barnyardgrass ([3]; 125 g ai/ha, scale of 0 to 100): 95 | Plant response rating, Barnyardgrass ([3]; 16 g ai/ha, scale 0 to 100): 5 | Plant response rating, Barnyardgrass ([3]; 31 g ai/ha, scale 0 to 100): 60 | Plant response rating, Windgrass ([4]; 16 g ai/ha, scale 0 to 100): 60 | Plant response rating, Windgrass ([4]; 31 g ai/ha, scale 0 to 100): 80 | Plant response rating, Windgrass ([4]; 62 g ai/ha, scale 0 to 100): 100 | Plant response rating, Windgrass ([4]; 125 g ai/ha, scale of 0 to 100): 100 | Plant response rating, Canada Thistle ([5]; 16 g ai/ha, scale of 0 to 100): 55 | Plant response rating, Canada Thistle ([5]; 31 g ai/ha, scale 0 to 100): 65 | Canada Thistle plant response rating ([5]; 62 g ai/ha): 70 | Canada Thistle plant response rating ([5]; 125 g ai/ha): 100 | Plant response rating, Field Poppy ([6]; 16 g ai/ha, scale of 0 to 100): 85 | Plant response rating, Field Poppy ([6]; 31 g ai/ha, scale 0 to 100): 98 | Field Poppy plant response rating ([6]; 62 g ai/ha): 100 | Field Poppy plant response rating ([6]; 125 g ai/ha): 100 | Plant response rating, Field Violet ([7]; 16 g ai/ha, scale of 0 to 100): 70 | Plant response rating, Field Violet ([7]; 31 g ai/ha, scale 0 to 100): 75 | Field Violet plant response rating ([7]; 62 g ai/ha): 85 | Field Violet plant response rating ([7]; 125 g ai/ha): 90 | Plant response rating, Nightshade ([8]; 16 g ai/ha, scale of 0 to 100): 90 | Plant response rating, Nightshade ([8]; 31 g ai/ha, scale 0 to 100): 95 | Nightshade plant response rating ([8]; 62 g ai/ha): 95 | Nightshade plant response rating ([8]; 125 g ai/ha): 100 | Plant response rating, Poinsettia, Wild ([9]; 16 g ai/ha, scale of 0 to 100): 30 | Plant response rating, Poinsettia, Wild ([9]; 31 g ai/ha, scale 0 to 100): 75 | Poinsettia, Wild plant response rating ([9]; 62 g ai/ha): 80 | Poinsettia, Wild plant response rating ([9]; 125 g ai/ha): 85 | Plant response rating, Buckwheat, Wild ([10]; 16 g ai/ha, scale of 0 to 100): 75 | Plant response rating, Buckwheat, Wild ([10]; 31 g ai/ha, scale 0 to 100): 80 | Buckwheat, Wild plant response rating ([10]; 62 g ai/ha): 85 | Buckwheat, Wild plant response rating ([10]; 125 g ai/ha): 90 | Plant response rating, Pigweed, Palmer ([11]; 16 g ai/ha, scale of 0 to 100): 60 | Plant response rating, Pigweed, Palmer ([11]; 31 g ai/ha, scale 0 to 100): 80 | Pigweed, Palmer plant response rating ([11]; 62 g ai/ha): 70 | Pigweed, Palmer plant response rating ([11]; 125 g ai/ha): 85 | Plant response rating, Windgrass ([12]; 16 g ai/ha, scale of 0 to 100): 20 | Plant response rating, Windgrass ([12]; 31 g ai/ha, scale 0 to 100): 35 | Windgrass plant response rating [12, 19]: 30 | Plant response rating, Speedwell ([13]; 16 g ai/ha, scale of 0 to 100): 85 | Plant response rating, Speedwell ([13]; 31 g ai/ha, scale 0 to 100): 90 | Speedwell plant response rating ([13]; 62 g ai/ha): 98 | Speedwell plant response rating ([13]; 125 g ai/ha): 100 | Plant response rating, Johnsongrass ([14]; 16 g ai/ha, scale of 0 to 100): 40 | Plant response rating, Johnsongrass ([14]; 31 g ai/ha, scale 0 to 100): 65 | Johnsongrass plant response rating ([14]; 62 g ai/ha): 60 | Johnsongrass plant response rating ([14]; 125 g ai/ha): 85 | Plant response rating, Geranium, Cutleaf ([15]; 16 g ai/ha, scale of 0 to 100): 45 | Plant response rating, Geranium, Cutleaf ([15]; 31 g ai/ha, scale 0 to 100): 50 | Geranium, Cutleaf plant response rating ([15]; 62 g ai/ha): 55 | Geranium, Cutleaf plant response rating ([15]; 125 g ai/ha): 65 | Plant response rating, Surinam Grass ([16]; 16 g ai/ha, scale of 0 to 100): 25 | Plant response rating, Surinam Grass ([16]; 31 g ai/ha, scale 0 to 100): 25 | Surinam Grass plant response rating [16, 19]: 35 | Plant response rating, Pigweed, Palmer ([17]; 16 g ai/ha, scale 0 to 100): 75 | Plant response rating, Pigweed, Palmer ([17]; 31 g ai/ha, scale 0 to 100): 85 | Plant response rating, Pigweed, Palmer ([17]; 62 g ai/ha, scale 0 to 100): 90 | Plant response rating, Pigweed, Palmer ([17]; 125 g ai/ha, scale of 0 to 100): 90 | Plant response rating, Johnsongrass ([18]; 16 g ai/ha, scale 0 to 100): 0 | Plant response rating, Johnsongrass ([18]; 31 g ai/ha, scale 0 to 100): 5 | Plant response rating, Johnsongrass ([18]; 62 g ai/ha, scale 0 to 100): 50 | Plant response rating, Johnsongrass ([18]; 125 g ai/ha, scale of 0 to 100): 70
